Experiment [1] deals with T1, K-Ras G12V (Homo sapiens, UniProt P01116, G12V). Kind of experiment: SOS1 catalyzed nucleotide exchange assay (GDP form K-Ras), K-Ras G12V. The settings on record: read-out: K-Ras G12V GDP Biochemical Activity (IC50).
Experiment [2] concerns the target T2, K-Ras G12C (Homo sapiens, UniProt P01116, G12C). Kind of experiment: SOS1 catalyzed nucleotide exchange assay (GDP form K-Ras), K-Ras G12C. The following applies: read-out: K-Ras G12C GDP Biochemical Activity (IC50).
Experiment [3] deals with T3, K-Ras G12A (Homo sapiens, UniProt P01116, G12A). Kind of experiment: SOS1 catalyzed nucleotide exchange assay (GDP form K-Ras), K-Ras G12A. The settings on record: read-out: K-Ras G12A GDP Biochemical Activity (IC50).
T3 sequence (P01116 1-169 isoform P01116-2 G12A): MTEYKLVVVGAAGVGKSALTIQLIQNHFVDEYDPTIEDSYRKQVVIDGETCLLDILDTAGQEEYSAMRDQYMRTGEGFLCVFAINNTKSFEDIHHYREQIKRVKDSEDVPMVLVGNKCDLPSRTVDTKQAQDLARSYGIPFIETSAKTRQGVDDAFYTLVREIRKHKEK
Experiment [4] addresses T4, K-Ras G12R (Homo sapiens, UniProt P01116, G12R). Put plainly: SOS1 catalyzed nucleotide exchange assay (GDP form K-Ras), K-Ras G12R. The following applies: read-out: K-Ras G12R GDP Biochemical Activity (IC50).
In experiment [5] the target is T5, K-Ras Q61H (Homo sapiens, UniProt P01116, Q61H). Put plainly: SOS1 catalyzed nucleotide exchange assay (GDP form K-Ras), K-Ras Q61H. The following applies: read-out: K-Ras Q61H GDP Biochemical Activity (IC50).
T5 sequence (P01116 1-169 isoform P01116-2 Q61H): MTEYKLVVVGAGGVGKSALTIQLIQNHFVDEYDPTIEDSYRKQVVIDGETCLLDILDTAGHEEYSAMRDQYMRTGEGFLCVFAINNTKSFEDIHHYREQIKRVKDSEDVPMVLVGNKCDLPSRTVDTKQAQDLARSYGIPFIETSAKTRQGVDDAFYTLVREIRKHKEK
The target in experiment [6] is T6, K-Ras WT (Homo sapiens, UniProt P01116). Put plainly: SOS1 catalyzed nucleotide exchange assay (GDP form K-Ras), K-Ras WT. The following applies: read-out: K-Ras WT GDP Biochemical Activity (IC50).
T6 sequence (P01116 1-169 isoform P01116-2): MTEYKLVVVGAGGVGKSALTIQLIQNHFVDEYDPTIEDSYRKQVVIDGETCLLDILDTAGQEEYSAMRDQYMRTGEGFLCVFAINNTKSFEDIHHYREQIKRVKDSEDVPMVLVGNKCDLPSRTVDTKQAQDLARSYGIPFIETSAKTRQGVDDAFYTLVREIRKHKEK
In experiment [7] the target is T7, K-Ras G12D (Homo sapiens, UniProt P01116, G12D).
T7 sequence (P01116 1-169 isoform P01116-2 G12D): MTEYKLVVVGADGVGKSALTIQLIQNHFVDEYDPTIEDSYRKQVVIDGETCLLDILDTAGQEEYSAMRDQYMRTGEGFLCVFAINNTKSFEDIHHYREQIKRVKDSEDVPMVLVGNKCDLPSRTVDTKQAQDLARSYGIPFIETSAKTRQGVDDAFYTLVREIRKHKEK
The target in experiment [8] is T8, K-Ras G13D (Homo sapiens, UniProt P01116, G13D).
T8 sequence (P01116 1-169 isoform P01116-2 G13D): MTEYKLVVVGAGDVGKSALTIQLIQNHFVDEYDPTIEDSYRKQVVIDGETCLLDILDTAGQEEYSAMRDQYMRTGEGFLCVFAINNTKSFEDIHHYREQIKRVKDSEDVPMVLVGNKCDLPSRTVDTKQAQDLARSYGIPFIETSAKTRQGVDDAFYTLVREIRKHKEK
Experiment [9] has as its target T6, K-Ras WT. Put plainly: GTP-K-Ras and cRAF interaction assay (GppNp-K-Ras), K-Ras WT. The settings on record: read-out: K-Ras WT GppNp Biochemical Activity (IC50).
In experiment [10] the target is T7, K-Ras G12D. Put plainly: GTP-K-Ras and cRAF interaction assay (GppNp-K-Ras), K-Ras G12D. The settings on record: read-out: K-Ras G12D GppNp Biochemical Activity (IC50).
In experiment [11] the target is T1, K-Ras G12V. Put plainly: GTP-K-Ras and cRAF interaction assay (GppNp-K-Ras), K-Ras G12V. The settings on record: read-out: K-Ras G12V GppNp Biochemical Activity (IC50).
Experiment [12] has as its target T2, K-Ras G12C. Kind of experiment: GTP-K-Ras and cRAF interaction assay (GppNp-K-Ras), K-Ras G12C. The following applies: read-out: K-Ras G12C GppNp Biochemical Activity (IC50).
In experiment [13] the target is T8, K-Ras G13D. Kind of experiment: GTP-K-Ras and cRAF interaction assay (GppNp-K-Ras), K-Ras G13D. The settings on record: read-out: K-Ras G13D GppNp Biochemical Activity (IC50).
Experiment [14] has as its target T3, K-Ras G12A. Kind of experiment: GTP-K-Ras and cRAF interaction assay (GppNp-K-Ras), K-Ras G12A. The following applies: read-out: K-Ras G12A GppNp Biochemical Activity (IC50).
Experiment [15] has as its target T4, K-Ras G12R. Put plainly: GTP-K-Ras and cRAF interaction assay (GppNp-K-Ras), K-Ras G12R. The following applies: read-out: K-Ras G12R GppNp Biochemical Activity (IC50).
Experiment [16] addresses T5, K-Ras Q61H. Put plainly: GTP-K-Ras and cRAF interaction assay (GppNp-K-Ras), K-Ras Q61H. The settings on record: read-out: K-Ras Q61H GppNp Biochemical Activity (IC50).
In experiment [17] the test system is p-ERK in AGS cells (K-Ras G12D). Put plainly: Phospho-ERK1/2(THR202/TYR204) HTRF assay, AGS. It counts as cell-based. The following applies: Homo sapiens, 2 h, 2 hours incubation. On the technique in general: In TR-FRET formats the signal depends on donor and acceptor labels being close together.
The subject of experiment [18] is p-ERK in SW620 cells (K-Ras G12V). Kind of experiment: Phospho-ERK1/2(THR202/TYR204) HTRF assay, SW620. It counts as cell-based. The settings on record: Homo sapiens, SW-620, 2 h, 2 hours incubation.
Description: (§1) p-ERK (MAPK pathway) inhibition activity of each of compounds in a variety of K-Ras mutant and K-Ras WT cell lines indicated in Table 23 was evaluated.
(§2) Each of cells in culture medium was seeded in 96-well plates at density indicated in Table 23 and then put in a cell incubator to incubate overnight. The next day, the culture medium was removed and the compound diluted in assay medium was added in each well. […] 10 μL of cell lysates from the 96-well plates were transferred to a 384-well plate (Greiner) containing 2.5 μL/well HTRF® pre-mixed antibodies (Cisbio 64AERPEH). The plate was incubated 4 hours at 25° C. and then read HTRF signals on Tecan Spark multimode microplate reader. The data were analyzed using a 4-parameter logistic model to calculate IC50 values.
In experiment [19] the test system is AGS cells (K-Ras G12D). Kind of experiment: 2D cell growth inhibition assay, AGS. It counts as cell-based. The following applies: Homo sapiens, 144 h, 6 days, absolute IC50.
For experiment [20], the system named is AsPC-1 cells (K-Ras G12D). Put plainly: 2D cell growth inhibition assay, AsPC-1. The following applies: Homo sapiens, ASPC1, 144 h, AsPC-1, K-Ras G12D, 6 days, absolute IC50. It counts as cell-based.
Description: (§3) The cell growth inhibition activity of each of compounds was tested by performing cell growth inhibition assays on a variety of K-Ras mutant and K-Ras WT cell lines indicated in Table 25.
(§4) Each of cells in culture medium was plated in TC-treated 96-well plates at a density indicated in Table 25 and incubated in a cell incubator overnight. The next day, each of compounds was diluted in culture medium and added to the plates. After 6 days incubation in cell incubator, the cell viability was detected by CellTiter-Glo® Cell Viability Assay kit (Promega).
The test system of experiment [21] is SW620 cells (K-Ras G12V). Kind of experiment: 2D cell growth inhibition assay, SW620. The experiment is classed as cell-based. The following applies: Homo sapiens, SW-620, 144 h, 6 days, absolute IC50.
Description: as §3, §4
The test system of experiment [22] is p-ERK in NCI-H358 cells (K-Ras G12C). Put plainly: Phospho-ERK1/2(THR202/TYR204) HTRF assay, NCI-H358. The experiment is classed as cell-based. The settings on record: Homo sapiens, 2 hours incubation.
Description: as §1, §2
In experiment [23] the test system is p-ERK in TCC-PAN2 cells (K-Ras G12R). Put plainly: Phospho-ERK1/2(THR202/TYR204) HTRF assay, TCC-PAN2. The settings on record: 2 hours incubation. It counts as cell-based.
Description: as §1, §2
Experiment [24] concerns p-ERK in NCI-H460 cells (K-Ras Q61H). Kind of experiment: Phospho-ERK1/2(THR202/TYR204) HTRF assay, NCI-H460. It counts as cell-based. The settings on record: Homo sapiens, 2 hours incubation.
Description: (§5) p-ERK (MAPK pathway) inhibition activity of each of compounds in a variety of K-Ras mutant and K-Ras WT cell lines indicated in Table 23 was evaluated. MKN-1 with K-Ras WT amplification is also a K-Ras dependent cell line.
as §2
Experiment [25] relates to p-ERK in MKN-1 cells (K-Ras WT amplification). Kind of experiment: Phospho-ERK1/2(THR202/TYR204) HTRF assay, MKN-1. The following applies: Homo sapiens; MKN-1, K-Ras WT, 2 hours incubation. The experiment is classed as cell-based.
Description: as §5, §2
For experiment [26], the system named is TCC-PAN2 cells (K-Ras G12R). Kind of experiment: 3D cell growth inhibition assay, TCC-PAN2. The experiment is classed as cell-based. The following applies: 144 h, 6 days, absolute IC50.
Description: as §3
(§6) Each of cells in culture medium was plated in ultra-low attachment-coated 96-well plates at a density indicated in Table 25 and incubated in a cell incubator overnight. The next day, each of compounds was diluted in culture medium and added to the plates. After 6 days incubation in cell incubator, the cell viability was detected by CellTiter-Glo® 3D Cell Viability Assay kit (Promega).
In experiment [27] the test system is NCI-H460 cells (K-Ras Q61H). Kind of experiment: 3D cell growth inhibition assay, NCI-H460. It counts as cell-based. The settings on record: Homo sapiens, 144 h, 6 days, absolute IC50.
Description: as §3, §6
The test system of experiment [28] is MKN-1 cells (K-Ras WT). Kind of experiment: 3D cell growth inhibition assay, MKN-1. It counts as cell-based. The settings on record: Homo sapiens, 144 h, MKN-1, K-Ras WT, 6 days, absolute IC50.
Description: as §3, §6
For experiment [29], the system named is p-ERK in NCI-H747 cells (K-Ras G13D).
Description: as §1, §2
The test system of experiment [30] is Capan-2 cells (K-Ras G12V).
Description: as §3, §6
The test system of experiment [31] is NCI-H358 cells (K-Ras G12C).
Description: as §6
Experiment [32] has as its system NCI-H747 cells (K-Ras G13D).
Description: as §3, §6
Experiment [33] relates to RERF-LC-Ad1 cells (K-Ras G12A).
Description: as §6

From US20250019377A1 (JACOBIO PHARMACEUTICALS CO., LTD, priority 2021, published 2025) come the findings set out here.

Like-named read-outs stand apart in the source and are kept apart here.

T4 sequence (P01116 1-169 isoform P01116-2 G12R): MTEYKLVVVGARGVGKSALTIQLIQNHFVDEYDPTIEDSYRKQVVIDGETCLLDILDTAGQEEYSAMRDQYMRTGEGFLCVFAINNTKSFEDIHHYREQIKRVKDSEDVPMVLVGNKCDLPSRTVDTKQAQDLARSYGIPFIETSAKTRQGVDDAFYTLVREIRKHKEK
T2 sequence (P01116 1-169 isoform P01116-2 G12C): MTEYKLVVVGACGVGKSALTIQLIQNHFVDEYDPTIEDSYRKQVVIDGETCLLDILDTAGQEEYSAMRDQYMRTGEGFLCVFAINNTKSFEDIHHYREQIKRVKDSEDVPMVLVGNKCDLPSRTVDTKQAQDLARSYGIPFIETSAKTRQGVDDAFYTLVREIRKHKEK
T1 sequence (P01116 1-169 isoform P01116-2 G12V): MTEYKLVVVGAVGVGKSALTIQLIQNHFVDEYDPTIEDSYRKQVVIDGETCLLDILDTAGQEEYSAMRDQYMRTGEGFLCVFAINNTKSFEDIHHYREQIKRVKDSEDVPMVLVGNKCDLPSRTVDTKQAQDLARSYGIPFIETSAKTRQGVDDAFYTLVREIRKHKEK

As a reminder, the IC50 is the concentration at which inhibition is half-maximal. On to `C#Cc1c(F)ccc2cc(O)cc(-c3c(Cl)cc4c(N5CCCOCC5)nc(OC[C@@]56CCCN5C[C@H](F)C6)nc4c3F)c12` (atropisomer, axis not shown; (M)) [Compound 19B, (M)-4-(6-chloro-8-fluoro-2-(((2R,7aS)-2-fluorotetrahydro-1H-pyrrolizin-7a(5H)-yl)methoxy)-4-(1,4-oxazepan-4-yl)quinazolin-7-yl)-5-ethynyl-6-fluoronaphthalen-2-ol trifluoroacetic acid], for which the IC50 in experiment [1] came to 5.27 nM; in experiment [2], 3.69 nM; in [3] it was 15.7 nM; in experiment [4], 3.17 nM; in [5], 6.65 nM; in experiment [6], 8.72 nM. The IC50 was 5.62 nM in [7]; 14.4 nM in experiment [8]; 183 nM in experiment [9]; 57 nM in experiment [10]; 136 nM in experiment [11]; 302 nM in [12]. The IC50 in [13] is 7.88 nM; in experiment [14], 493 nM; in experiment [15], 95.9 nM; in experiment [16], 212 nM.

In the case of `C#Cc1c(F)ccc2cc(O)cc(-c3ncc4c(N5CCCOC[C@@H]5C)nc(OC[C@@]56CCCN5C[C@H](F)C6)nc4c3F)c12` (single isomer, unassigned) [Compound 16A], the IC50 in experiment [1] was 6.05 nM; in [6] it was 3.88 nM; in [17], 42.6 nM; in experiment [18] it was 40.5 nM; in [19], 242 nM; in experiment [20], 1380 nM. The IC50 in experiment [21] came out at 191 nM; in [7], 3.78 nM; in experiment [8] it was 14.2 nM; in experiment [9] it was 741 nM; in experiment [10] it was 315 nM; in experiment [11] it was 469 nM. Moreover, in [13], the IC50 stood at 37.2 nM.

Take `C#Cc1c(F)ccc2cc(O)cc(-c3ncc4c(N5CCOC[C@H](CC#N)C5)nc(OC[C@@]56CCCN5C[C@H](F)C6)nc4c3F)c12` (single isomer, unassigned) [Compound 14B]: the IC50 is 0.515 nM in experiment [1]; 0.882 nM in [6]; 22.9 nM in experiment [17]; 112 nM in experiment [18]; 49.7 nM in experiment [19]; 708 nM in [20]. In addition, the IC50 in experiment [21] was found to be 207 nM; in experiment [7], 0.739 nM; in experiment [8], 2.76 nM; in [9] it was 15.8 nM; in [10] it was 7.31 nM; in [11] it was 158 nM. The IC50 in [13] came out at 1.87 nM.

For the molecule `C#Cc1c(F)ccc2cc(O)cc(-c3ncc4c(N5CCCOC[C@H]5C)nc(OC[C@@]56CCCN5C[C@H](F)C6)nc4c3F)c12` (single isomer, unassigned) [Compound 16B], the IC50 in [1] is 0.89 nM; in [2], 1.12 nM; in [3], 1.64 nM; in [4], 0.994 nM; in experiment [5], 1.15 nM; in experiment [6] it was 1.72 nM. The IC50 in experiment [17] came to 1.44 nM; in experiment [18], 5.07 nM; in [22] it was 2.1 nM; in experiment [23] it was 97.6 nM; in experiment [24], 18.1 nM; in experiment [25], 2.97 nM. Also, the IC50 in experiment [19] was found to be 5.82 nM; in [20] it was 53 nM; in experiment [21], 8.77 nM; in [26], 319 nM; in experiment [27] it was 296 nM; in experiment [28], 20.9 nM. Also, the IC50 in experiment [7] turned out to be 0.576 nM; in [8], 2.22 nM; in experiment [29] it was 3.56 nM; in experiment [30], 121 nM; in [31] it was 13.7 nM; in experiment [32], 21.6 nM. Moreover, the IC50 stood at 30.9 nM in experiment [33]; 21.5 nM in [9]; 7.46 nM in experiment [10]; 10.4 nM in experiment [11]; 58.3 nM in [12]; 2.3 nM in experiment [13]. In addition, the IC50 amounted to 98.7 nM in experiment [14], 15.7 nM in [15] and 38.5 nM in [16].
